Experiments:
Type in all cases: functional, organism-based
Leishmania donovani [1] = experiment: In vitro for leishmanicidal activity against Leishmania donovani (PP75) at the concentration of 100 ug/mL.
Leishmania donovani [2] = experiment: In vitro for leishmanicidal activity against Leishmania donovani (PP75) at the concentration of 10 ug/mL.
Leishmania amazonensis [3] = experiment: Tested in vitro for leishmanicidal activity against Leishmania amazonensis (PH8) at the concentration of 50 ug/mL;++ indicates 80-90% lysis of parasites
Leishmania donovani [4] = experiment: Tested in vitro for leishmanicidal activity against Leishmania donovani (PP75) at the concentration of 50 ug/mL;++ indicates 80-90% lysis of parasites
Leishmania braziliensis [5] = experiment: Tested in vitro for leishmanicidal activity against Leishmania brasiliensis (2903) at the concentration of 25 ug/mL; + indicates Less than 70% lysis of parasites
Leishmania donovani [6] = experiment: Tested in vitro for leishmanicidal activity against Leishmania donovani (PP75) at the concentration of 25 ug/mL;+ indicates Less than 70% lysis of parasites
Leishmania amazonensis [7] = experiment: Tested in vitro for leishmanicidal activity against Leishmania amazonensis (PH8) at the concentration of 25 ug/mL; + indicates less than 70% lysis of parasites
Leishmania braziliensis [8] = experiment: Tested in vitro for leishmanicidal activity against Leishmania brasiliensis (2903) at the concentration of 10 ug/mL; + indicates Less than 70% lysis of parasites
Leishmania amazonensis [9] = experiment: In vitro for leishmanicidal activity against Leishmania amazonensis (PH8) at the concentration of 100 ug/mL.
Leishmania braziliensis [10] = experiment: Tested in vitro for leishmanicidal activity against Leishmania brasiliensis (2903) at the concentration of 50 ug/mL;++ indicates 80-90% lysis of parasites
Leishmania amazonensis [11] = experiment: In vitro for leishmanicidal activity against Leishmania amazonensis (PH8) at the concentration of 10 ug/mL.
Leishmania donovani [12] = experiment: Tested in vitro for leishmanicidal activity against Leishmania donovani (PP75) at the concentration of 50 ug/mL;++ indicates 80-90%lysis of parasites
Leishmania braziliensis [13] = experiment: Tested in vitro for leishmanicidal activity against Leishmania brasiliensis (2903) at the concentration of 50 ug/mL; ++ indicates 80-90%lysis of parasites
Leishmania amazonensis [14] = experiment: Tested in vitro for leishmanicidal activity against Leishmania amazonensis (PH8) at the concentration of 50 ug/mL; ++ indicates 80-90% lysis of parasites
Leishmania braziliensis [15] = experiment: Tested in vitro for leishmanicidal activity against Leishmania brasiliensis (2903) at the concentration of 25 ug/mL; ++ indicates 80-90%lysis of parasites
Leishmania amazonensis [16] = experiment: In vitro for leishmanicidal activity against Leishmania amazonensis (PH8) at the concentration of 50 ug/mL.
Leishmania donovani [17] = experiment: In vitro for leishmanicidal activity against Leishmania donovani (PP75) at the concentration of 50 ug/mL.
Leishmania braziliensis [18] = experiment: Tested in vitro for leishmanicidal activity against Leishmania brasiliensis (2903) at the concentration of 10 ug/mL;++ indicates 80-90% lysis of parasites
Leishmania braziliensis [19] = experiment: In vitro for leishmanicidal activity against Leishmania brasiliensis (2903) at the concentration of 100 ug/mL.
Leishmania amazonensis [20] = experiment: Tested in vitro for leishmanicidal activity against Leishmania amazonensis (PH8) at the concentration of 10 ug/mL; ++ indicates 80-90% lysis of parasites
Leishmania donovani [21] = experiment: Tested in vitro for leishmanicidal activity against Leishmania donovani (PP75) at the concentration of 10 ug/mL++ indicates 80-90% lysis of parasites
Leishmania amazonensis [22] = experiment: Tested in vitro for leishmanicidal activity against Leishmania amazonensis (PH8) at the concentration of 25 ug/mL; ++ indicates 80-90% lysis of parasites
Leishmania braziliensis [23] = experiment: Tested in vitro for leishmanicidal activity against Leishmania brasiliensis (2903) at the concentration of 25 ug/mL; ++ indicates 80-90% lysis of parasites
Leishmania donovani [24] = experiment: Tested in vitro for leishmanicidal activity against Leishmania donovani (PP75) at the concentration of 25 ug/mL;++ indicates 80-90% lysis of parasites
Leishmania braziliensis [25] = experiment: Tested in vitro for leishmanicidal activity against Leishmania brasiliensis (2903) at the concentration of 10 ug/mL; + indicatesLess than 70% lysis of parasites
Leishmania braziliensis [26] = experiment: Tested in vitro for leishmanicidal activity against Leishmania brasiliensis (2903) at the concentration of 10 ug/mL; ++ indicates 80-90% lysis of parasites
Leishmania donovani [27] = experiment: Tested in vitro for leishmanicidal activity against Leishmania donovani (PP75) at the concentration of 10 ug/mL;++ indicates 80-90% lysis of parasites
Leishmania braziliensis [28] = experiment: Tested in vitro for leishmanicidal activity against Leishmania brasiliensis (2903) at the concentration of 50 ug/mL; + indicates Less than 70% lysis of parasites
Leishmania donovani [29] = experiment: Tested in vitro for leishmanicidal activity against Leishmania donovani (PP75) at the concentration of 50 ug/mL;+ indicates Less than 70% lysis of parasites
Leishmania amazonensis [30] = experiment: Tested in vitro for leishmanicidal activity against Leishmania amazonensis (PH8) at the concentration of 50 ug/mL; + indicates less than 70% lysis of parasites
Leishmania donovani [31] = experiment: Tested in vitro for leishmanicidal activity against Leishmania donovani (PP75) at the concentration of 10 ug/mL
Leishmania braziliensis [32] = experiment: In vitro for leishmanicidal activity against Leishmania brasiliensis (2903) at the concentration of 10 ug/mL.
Leishmania donovani [33] = experiment: Tested in vitro for leishmanicidal activity against Leishmania donovani (PP75) at the concentration of 25 ug/mL;++ indicates 80-90%lysis of parasites
Leishmania braziliensis [34] = experiment: Tested in vitro for leishmanicidal activity against Leishmania brasiliensis (2903) at the concentration of 10 ug/mL;+ indicates Less than 70% lysis of parasites
Leishmania amazonensis [35] = experiment: Tested in vitro for leishmanicidal activity against Leishmania amazonensis (PH8) at the concentration of 25 ug/mL;++ indicates 80-90% lysis of parasites
Leishmania braziliensis [36] = experiment: Tested in vitro for leishmanicidal activity against Leishmania brasiliensis (2903) at the concentration of 25 ug/mL;++ indicates 80-90% lysis of parasites

| SMILES | Activity (Leishmania donovani [1]) | Activity (Leishmania donovani [2]) | Activity (Leishmania braziliensis [5]) | Activity (Leishmania donovani [6]) | Activity (Leishmania amazonensis [7]) | Activity (Leishmania amazonensis [9]) | Activity (Leishmania amazonensis [11]) | Activity (Leishmania amazonensis [16]) | Activity (Leishmania donovani [17]) | other results |
| --- | --- | --- | --- | --- | --- | --- | --- | --- | --- | --- |
| CCCCCCCCCCCCCCC(CO)NC(=O)CCCC(=O)O (stereo not drawn) | + | 80-90% lysis of parasites | 80-90% lysis of parasites | 80-90% lysis of parasites | 80-90% lysis of parasites | + | 80-90% lysis of parasites | – | – | Activity (Leishmania amazonensis [3]): 80-90% lysis of parasites; Activity (Leishmania donovani [4]): 80-90% lysis of parasites; Activity (Leishmania braziliensis [8]): 80-90% lysis of parasites; Activity (Leishmania braziliensis [10]): 80-90% lysis of parasites |
| CCCCCCCCCCCCCCC(CO)NCC(=O)OCC (stereo not drawn) | + | 80-90% lysis of parasites | 80-90% lysis of parasites | 80-90% lysis of parasites | 80-90% lysis of parasites | + | 80-90% lysis of parasites | – | – | Activity (Leishmania donovani [12]): 80-90% lysis of parasites; Activity (Leishmania braziliensis [13]): 80-90% lysis of parasites; Activity (Leishmania amazonensis [14]): 80-90% lysis of parasites; Activity (Leishmania braziliensis [8]): 80-90% lysis of parasites |
| CCCCCCCCCCCCCCC(CO)N(CC)CC (stereo not drawn) | + | 80-90% lysis of parasites | – | 80-90% lysis of parasites | 80-90% lysis of parasites | + | 80-90% lysis of parasites | + | + | Activity (Leishmania braziliensis [15]): 80-90% lysis of parasites |
| CCCCCCCCCCCCCCC(N)CN(CC(=O)OCC)CC(=O)OCC (stereo not drawn) | + | – | – | – | – | + | – | + | + | Activity (Leishmania braziliensis [18]): 80-90% lysis of parasites; Activity (Leishmania braziliensis [19]): +; Activity (Leishmania amazonensis [20]): 80-90% lysis of parasites; Activity (Leishmania donovani [21]): 80-90% lysis of parasites |
| CCCCCCCCCCCCCCC(COCc1ccccc1)NCC (stereo not drawn) | + | 80-90% lysis of parasites | – | – | – | + | 80-90% lysis of parasites | + | 80-90% lysis of parasites | Activity (Leishmania amazonensis [22]): 80-90% lysis of parasites; Activity (Leishmania braziliensis [23]): 80-90% lysis of parasites; Activity (Leishmania donovani [24]): 80-90% lysis of parasites; Activity (Leishmania braziliensis [25]): 80-90% lysis of parasites |
| CCCCCCCCCCCCCCC(CO)NCC (stereo not drawn) | + | – | – | – | – | + | – | + | + | Activity (Leishmania amazonensis [20]): 80-90% lysis of parasites; Activity (Leishmania braziliensis [26]): 80-90% lysis of parasites; Activity (Leishmania donovani [27]): 80-90% lysis of parasites |
| CCCCCCCCCCCCCCC(CO)NCC(=O)O (stereo not drawn) | + | – | Less than 70% lysis of parasites | Less than 70% lysis of parasites | Less than 70% lysis of parasites | + | Less than 70% lysis of parasites | – | – | Activity (Leishmania braziliensis [28]): Less than 70% lysis of parasites; Activity (Leishmania donovani [29]): Less than 70% lysis of parasites; Activity (Leishmania amazonensis [30]): Less than 70% lysis of parasites; Activity (Leishmania donovani [31]): Less than 70% lysis of parasites; Activity (Leishmania braziliensis [32]): Less than 70% lysis of parasites |
| CCCCCCCCCCCCCCC(CN(CC)CC)NC(=O)CCCC(=O)O (stereo not drawn) | + | 80-90% lysis of parasites | – | – | – | + | 80-90% lysis of parasites | + | + | Activity (Leishmania donovani [33]): 80-90% lysis of parasites; Activity (Leishmania braziliensis [34]): 80-90% lysis of parasites; Activity (Leishmania braziliensis [19]): +; Activity (Leishmania amazonensis [35]): 80-90% lysis of parasites; Activity (Leishmania braziliensis [36]): 80-90% lysis of parasites |
